# Data as given in paper PMC3701632, “Kinetic Features of L,D-Transpeptidase Inactivation Critical for β-Lactam Antibacterial Activity” (PLoS ONE, 2013).
# Experiments:
# [1] = target: T1, Ldtfm catalytic domain (LdtfmC442A) (Enterococcus faecium, UniProt Q3Y185, C442A); assay: biochemical
# T1 construct: gene HMPREF0351_12555
# [2] = tested on: CO/N=C(\C(=O)N[C@@H]1C(=O)N2C(C(=O)O)=C(CSc3nc(=O)c(=O)[nH]n3C)CS[C@H]12)c1csc(N)n1; assay: purified protein; type: biochemical, Enterococcus faecium; conditions: covalent acylenzyme turnover, saturable step assigned to oxyanion formation, 5 µM enzyme, 100 mM sodium phosphate pH 6.0, 20°C
# [3] = tested on: CC1(C)S[C@@H]2[C@H](NC(=O)[C@H](N)c3ccccc3)C(=O)N2[C@H]1C(=O)O; assay: purified protein; type: biochemical, Enterococcus faecium; conditions: covalent acylenzyme turnover, saturable step assigned to oxyanion formation, 5 µM enzyme, 100 mM sodium phosphate pH 6.0, 20°C
# T1 sequence (Q3Y185 341-466 C442A): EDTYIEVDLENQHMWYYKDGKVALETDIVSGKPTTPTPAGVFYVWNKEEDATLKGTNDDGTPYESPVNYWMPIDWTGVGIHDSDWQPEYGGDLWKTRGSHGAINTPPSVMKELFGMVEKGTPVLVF
Compound,Kd [1],kcat [2],K0.5 [3],kcat [3]
CC1(C)S[C@@H]2[C@H](NC(=O)[C@H](N)c3ccccc3)C(=O)N2[C@H]1C(=O)O [ampicillin],79 mM,–,–,–
CO/N=C(\C(=O)N[C@@H]1C(=O)N2C(C(=O)O)=C(CSc3nc(=O)c(=O)[nH]n3C)CS[C@H]12)c1csc(N)n1 [ceftriaxone],44 mM,–,–,–
C[C@@H](O)[C@H]1C(=O)N2C(C(=O)O)=C(S[C@@H]3CN[C@H](C(=O)Nc4cccc(C(=O)O)c4)C3)[C@H](C)[C@H]12 [ertapenem],50 mM,–,–,–
Ldtfm (Enterococcus faecium DO),–,0.00045 ± 5e-05 s⁻¹,370 ± 30 µM,0.003 ± 0.00017 s⁻¹
